Measured values taken from EP0561516A1, “Process for stabilizing chlorinated polyethylene against degradation” (THE DOW CHEMICAL COMPANY, priority 1992, dated 1993).

How the values were obtained:
Type in all cases: physicochemical
[1] = Thermal degradation (weight loss) by TGA at 180 °C in nitrogen purge; conditions: TGA 180 °C, 60 minutes, 0.3% antioxidant added to CPE slurry heated to 80 °C for 90 minutes
Method: The thermal degradation (weight loss) of the following samples is measured by TGA at 180 °C (in a nitrogen purge during 60 minutes).

[2] = Total organic carbon (TOC) of the slurry, test of antioxidant deposition on CPE; conditions: 60 minutes after addition of 0.5% antioxidant to the CPE slurry; 11.8 ppm before addition
Method: In order to test that the antioxidant has actually deposited on the CPE, rather than on the reactor walls, the total organic carbon (TOC) of the slurry is measured, and a glass slide placed in the reactor during the test is investigated for deposition of antioxidant.

[3] = Extension at break after roll milling, dry blending versus liquid-liquid addition of antioxidant; conditions: with calcium stearate, epoxidized soja bean oil, titanium dioxide
Method: In order to illustrate the advantages of liquid-liquid blending over dry blending, a sample of CPE containing 36% chlorine, having a density of 1.18 g/cm³, a weight average molecular weight of 2x10⁵ and a cristallinity of 0.5% is mixed in a food processor with 1% calcium stearate, 1% epoxidized soja bean oil and 0.5% titanium dioxide, based on the weight of the CPE. The mixture is formed into a sheet of 3 mm thickness on a roll mill at 190 °C, and its tensile properties are measured. The extension at break is a measure of the molecular weight of a polymer. The material breaks at 596% extension.
Another sample of the same material is milled for 15 minutes at 190 °C before a sheet of 3 mm thickness is formed.
The antioxidant IRGANOX 1076 (trademark) is added to the mixture as described above at an amount of 0.25% by the weight of the CPE using the food mixer. The resulting mixture is milled for 15 minutes. The extension at break of a sheet of 3 mm thickness, prepared as indicated above, is 740%, showing that the degree of chain scission is reduced by the addition of the antioxidant. (comparative run, but not State of the Art.)
To an aqueous slurry containing 16 % of the CPE, based on the total weight of the slurry, 0.25% IRGANOX 1076 (trademark), by the weight of CPE is added in the manner described in Example 1. The mixture is dried as described in Example 1. […]

For `Cc1cc(CCC(=O)OCCOCCOCCOC(=O)CCc2cc(C)c(O)c(C(C)(C)C)c2)cc(C(C)(C)C)c1O` [IRGANOX 245, triethylene glycol bis [3-tert-butyl-4-hydroxy-5-methylphenyl]propionate], the “thermal degradation (weight loss)” value [1] was 75 ppm/min.
In the case of `CCCCCCCCCCCCCCCCCCOC(=O)CCc1cc(C(C)(C)C)c(O)c(C(C)(C)C)c1` [IRGANOX 1076, Octadecyl 3,5-di-tert-butyl-4-hydroxyhydrocinnamate], the “total organic carbon (TOC) of the slurry” value [2] is reported as 10.0 ppm, the extension at break ([3]; 0.25% antioxidant added to aqueous slurry with 16% CPE (method of the invention), 15 minutes milling) is reported as 704% and the extension at break ([3]; 0.25% antioxidant dry-blended in food mixer (comparative run), milled 15 minutes at 190 °C, sheet of 3 mm) is reported as 740%.
